Assay results as given in PubChem BioAssay (NCI).
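All cell lines were grown in 96-well plates and treated with compound for 48 hours. At the TGI there is no net growth.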

How the values were obtained:
Assay in all cases: DTP human tumour cell line panel, 48 h
[1] = tested on: SK-MEL-5 melanoma
[2] = tested on: COLO 205 colon
[3] = tested on: OVCAR-5 ovarian
[4] = tested on: MDA-MB-231 breast
[5] = tested on: HS 578T breast
[6] = tested on: NCI-H460 lung
[7] = tested on: K-562 leukemia
[8] = tested on: UACC-257 melanoma
[9] = tested on: SF-268 CNS
[10] = tested on: MOLT-4 leukemia
[11] = tested on: MDA-N
[12] = tested on: OVCAR-4 ovarian
[13] = tested on: HL-60(TB) leukemia
[14] = tested on: ACHN renal
[15] = tested on: UO-31 renal
[16] = tested on: MDA-MB-435
[17] = tested on: NCI-H226 lung
[18] = tested on: PC-3 prostate
[19] = tested on: M14 melanoma
[20] = tested on: MALME-3M melanoma
[21] = tested on: HT29 colon
[22] = tested on: SW-620 colon
[23] = tested on: SK-OV-3 ovarian
[24] = tested on: RXF 393 renal
[25] = tested on: SF-539 CNS
[26] = tested on: CCRF-CEM leukemia
[27] = tested on: HOP-62 NSCLC
[28] = tested on: CAKI-1 renal
[29] = tested on: T-47D breast
[30] = tested on: A549 NSCLC
[31] = tested on: 786-0 renal
[32] = tested on: SNB-19 CNS
[33] = tested on: NCI-H23 lung
[34] = tested on: SR leukemia
[35] = tested on: SN12C renal
[36] = tested on: DU-145 prostate
[37] = tested on: NCI-H522 lung
[38] = tested on: KM12 colon
[39] = tested on: OVCAR-8 ovarian
[40] = tested on: SF-295 CNS
[41] = tested on: NCI/ADR-RES ovarian
[42] = tested on: A498 renal
[43] = tested on: U251 CNS
[44] = tested on: UACC-62 melanoma
[45] = tested on: IGROV1 ovarian
[46] = tested on: RPMI-8226 leukemia
[47] = tested on: HCC-2998 colon
[48] = tested on: HCT-15 colon
[49] = tested on: HOP-92 NSCLC
[50] = tested on: LOX IMVI melanoma
[51] = tested on: SK-MEL-28 melanoma
[52] = tested on: HCT-116 colon
[53] = tested on: TK-10 renal
[54] = tested on: SK-MEL-2 melanoma
[55] = tested on: MCF7 breast
[56] = tested on: BT-549 breast
[57] = tested on: EKVX NSCLC
[58] = tested on: SNB-75 CNS
[59] = tested on: OVCAR-3 ovarian
[60] = tested on: M19-MEL melanoma

With `COC(=O)C1(Cc2ccccc2)Cc2ccc3c(c2C1=O)CCC3` (configuration not stated) the TGI [1] was 49.9 µM, the TGI [2] was > 62.5 µM and the TGI [3] was > 100 µM. For the same compound, the TGI [4] was > 100 µM, the TGI [5] was > 84.3 µM and the TGI [6] was > 100 µM. For the same compound, the TGI [7] was > 100 µM, the TGI [8] was 99.1 µM and the TGI [9] was > 100 µM. For the same compound, the TGI [10] was 69.5 µM, the TGI [11] was > 86.4 µM and the TGI [12] was > 92.8 µM. For the same compound, the TGI [13] was > 63.3 µM, the TGI [14] was > 100 µM and the TGI [15] was > 100 µM. The TGI [16] was > 77.9 µM, the TGI [17] was > 100 µM and the TGI [18] was > 100 µM. The TGI [19] was 97.7 µM, the TGI [20] was 25.4 µM and the TGI [21] was > 89.6 µM. For the same compound, the TGI [22] was > 100 µM, the TGI [23] was > 100 µM and the TGI [24] was > 69.5 µM. The TGI [25] was > 76.9 µM, the TGI [26] was > 89.5 µM and the TGI [27] was > 100 µM. The TGI [28] was > 100 µM, the TGI [29] was > 100 µM and the TGI [30] was > 100 µM. The TGI [31] was > 100 µM, the TGI [32] was > 100 µM and the TGI [33] was > 78.6 µM. The TGI [34] was > 73.4 µM, the TGI [35] was > 100 µM and the TGI [36] was > 100 µM. The TGI [37] was 75.5 µM, the TGI [38] was > 100 µM and the TGI [39] was > 100 µM. For the same compound, the TGI [40] was > 100 µM, the TGI [41] was > 100 µM and the TGI [42] was > 89.8 µM. The TGI [43] was > 100 µM, the TGI [44] was > 100 µM and the TGI [45] was > 100 µM. The TGI [46] was > 90.3 µM, the TGI [47] was > 100 µM and the TGI [48] was > 100 µM. The TGI [49] was > 73 µM, the TGI [50] was > 64 µM and the TGI [51] was > 100 µM. For the same compound, the TGI [52] was > 100 µM, the TGI [53] was > 84 µM and the TGI [54] was 41.5 µM. The TGI [55] was > 100 µM, the TGI [56] was > 87.7 µM and the TGI [57] was > 75.2 µM. For the same compound, the TGI [58] was > 100 µM and the TGI [59] was > 100 µM.
`COc1cc2c(c3c1c(=O)c1ccccc1n3C)C=CC1(CCCCC1)O2` was tested, and the TGI [1] was > 6.15 µM, the TGI [2] was > 10 µM and the TGI [3] was > 10 µM. The TGI [4] was > 10 µM, the TGI [5] was 7.49 µM and the TGI [6] was > 10 µM. For the same compound, the TGI [7] was 6.36 µM, the TGI [8] was > 10 µM and the TGI [9] was > 10 µM. The TGI [10] was > 10 µM, the TGI [11] was 8.08 µM and the TGI [12] was > 10 µM. The TGI [13] was > 10 µM, the TGI [14] was > 10 µM and the TGI [15] was 0.255 µM. For the same compound, the TGI [16] was 6.42 µM, the TGI [17] was > 10 µM and the TGI [18] was > 10 µM. The TGI [19] was 7.92 µM, the TGI [20] was > 10 µM and the TGI [21] was > 10 µM. The TGI [22] was > 10 µM, the TGI [23] was > 10 µM and the TGI [24] was 2.98 µM. The TGI [25] was > 7.22 µM, the TGI [26] was > 10 µM and the TGI [27] was > 9.54 µM. For the same compound, the TGI [28] was > 2.29 µM, the TGI [29] was > 10 µM and the TGI [30] was 4.43 µM. For the same compound, the TGI [31] was > 10 µM, the TGI [32] was > 10 µM and the TGI [33] was > 10 µM. For the same compound, the TGI [34] was 6.39 µM, the TGI [35] was > 10 µM and the TGI [36] was > 10 µM. For the same compound, the TGI [37] was > 10 µM, the TGI [38] was > 2.21 µM and the TGI [39] was > 10 µM. For the same compound, the TGI [40] was 4.7 µM, the TGI [41] was > 10 µM and the TGI [42] was > 9.61 µM. For the same compound, the TGI [43] was > 10 µM, the TGI [44] was 9.86 µM and the TGI [45] was > 10 µM. For the same compound, the TGI [46] was > 5.04 µM, the TGI [47] was > 10 µM and the TGI [48] was > 10 µM. For the same compound, the TGI [49] was 9.77 µM, the TGI [50] was > 10 µM and the TGI [51] was > 10 µM. For the same compound, the TGI [52] was > 10 µM, the TGI [53] was > 10 µM and the TGI [54] was 9.69 µM. The TGI [55] was > 9.55 µM, the TGI [56] was > 8.59 µM and the TGI [57] was > 10 µM. For the same compound, the TGI [58] was 8.46 µM and the TGI [59] was > 10 µM.
With `CN(C)c1ccc(/C=C(\NC(=O)c2ccccc2)C2NC(Cc3c[nH]c4ccccc34)C(=O)O2)cc1` (configuration not stated) the TGI [1] was > 100 µM, the TGI [2] was > 39.3 µM and the TGI [3] was > 100 µM. The TGI [4] was > 100 µM, the TGI [5] was > 54.9 µM and the TGI [6] was > 74.5 µM. For the same compound, the TGI [7] was > 100 µM, the TGI [8] was > 100 µM and the TGI [9] was > 100 µM. The TGI [10] was > 100 µM, the TGI [11] was > 100 µM and the TGI [12] was > 100 µM. The TGI [13] was 39.9 µM, the TGI [14] was > 100 µM and the TGI [15] was > 100 µM. The TGI [16] was > 100 µM, the TGI [17] was > 100 µM and the TGI [18] was > 100 µM. For the same compound, the TGI [19] was > 100 µM, the TGI [20] was 79.6 µM and the TGI [21] was > 100 µM. The TGI [22] was > 100 µM, the TGI [23] was > 100 µM and the TGI [24] was > 100 µM. For the same compound, the TGI [26] was > 100 µM, the TGI [27] was > 100 µM and the TGI [28] was > 100 µM. The TGI [29] was > 100 µM, the TGI [30] was > 100 µM and the TGI [31] was > 100 µM. The TGI [32] was > 100 µM, the TGI [33] was > 100 µM and the TGI [34] was > 100 µM. For the same compound, the TGI [35] was > 100 µM, the TGI [36] was > 100 µM and the TGI [37] was 24.4 µM. For the same compound, the TGI [38] was > 100 µM, the TGI [39] was > 100 µM and the TGI [40] was > 100 µM. The TGI [41] was > 100 µM, the TGI [42] was > 100 µM and the TGI [43] was > 100 µM. For the same compound, the TGI [44] was > 100 µM, the TGI [45] was > 100 µM and the TGI [46] was > 49 µM. The TGI [47] was > 100 µM, the TGI [48] was > 93.5 µM and the TGI [49] was > 69.3 µM. The TGI [50] was > 54.3 µM, the TGI [51] was > 100 µM and the TGI [52] was > 100 µM. The TGI [53] was > 38.7 µM, the TGI [54] was > 100 µM and the TGI [55] was > 100 µM. The TGI [56] was > 45.2 µM, the TGI [57] was > 100 µM and the TGI [58] was > 100 µM. For the same compound, the TGI [59] was > 100 µM.
In the case of `COc1ccc(C(c2ccccc2)C(C)C(=O)c2c(C)cc(C)cc2C)cc1` (configuration not stated), the TGI [60] is reported as > 100 µM, the TGI [7] is reported as > 100 µM and the TGI [20] is reported as > 100 µM. For the same compound, the TGI [21] was > 100 µM, the TGI [37] was > 100 µM and the TGI [46] was > 100 µM.
